Results published in patent US20100168102A9, “Amide Derivatives as Kinase Inhibitors” (Devgen NV, priority 2005, published 2010).
Structures can show the parent of a compound that is named as a salt. Where two headings read alike, the source gives them in different places.

Legend:
[1] = biological target: T1, PKC epsilon (Homo sapiens, UniProt Q02156); test: Biochemical assay for PKC epsilon (fluorescence polarization, Protein Kinase C Assay Kit, Red); conditions: read-out: IC50 μM PKCε
T1 construct: purchased Invitrogen P2282
T1 sequence (Q02156 1-737): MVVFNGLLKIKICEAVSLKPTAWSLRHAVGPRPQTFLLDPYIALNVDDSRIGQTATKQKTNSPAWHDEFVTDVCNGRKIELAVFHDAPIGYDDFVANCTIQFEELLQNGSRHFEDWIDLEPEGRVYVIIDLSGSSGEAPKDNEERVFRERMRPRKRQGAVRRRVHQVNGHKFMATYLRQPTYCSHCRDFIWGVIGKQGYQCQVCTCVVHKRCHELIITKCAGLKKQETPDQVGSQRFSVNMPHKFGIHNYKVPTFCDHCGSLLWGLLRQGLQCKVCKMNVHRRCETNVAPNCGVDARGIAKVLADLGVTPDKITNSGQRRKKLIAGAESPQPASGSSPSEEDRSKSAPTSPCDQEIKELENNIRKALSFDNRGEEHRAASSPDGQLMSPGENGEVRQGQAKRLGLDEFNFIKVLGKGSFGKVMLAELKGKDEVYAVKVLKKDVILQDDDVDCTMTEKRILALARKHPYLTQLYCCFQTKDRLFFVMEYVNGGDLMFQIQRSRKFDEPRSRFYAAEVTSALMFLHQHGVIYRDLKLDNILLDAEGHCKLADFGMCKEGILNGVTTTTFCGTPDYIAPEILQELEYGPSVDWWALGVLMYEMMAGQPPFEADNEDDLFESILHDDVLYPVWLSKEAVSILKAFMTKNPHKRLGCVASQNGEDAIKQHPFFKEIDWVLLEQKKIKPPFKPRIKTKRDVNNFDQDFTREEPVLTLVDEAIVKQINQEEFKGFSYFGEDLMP
Summary of the method: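 Read-out was fluorescence-polarization competition between phosphorylated substrate and a rhodamine PKC tracer for an anti-phosphoserine antibody, added with EDTA stop after an 80 min room-temperature kinase reaction with ATP and protein substrate (Mg2+/Ca2+ buffer). Enzyme (10 ng/ml final) was preincubated with compound for 30 min.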

[2] = biological target: T2, human ROCKα/ROCKII mix (Homo sapiens, UniProt O75116); test: Biochemical assay for ROCK (fluorescence polarization, ROCK IMAP Kit)
T2 construct: purchased Upstate Biotechnology 14-451

[3] = biological target: T3, PKC theta (Homo sapiens, UniProt Q04759); test: Biochemical assay for PKC theta (fluorescence polarization, Protein Kinase C Assay Kit, Red)
T3 construct: purchased Invitrogen P2996
Protocol: The compounds were tested for inhibition of PKC theta.
The inhibition assays were performed with a fluorescence polarization (FP) assay using the commercially available Protein Kinase C Assay Kit, Red, from Invitrogen (Product ID. No. P2941), essentially in accordance with the protocol supplied by the manufacturer. The substrate used was […] (Mw 1561), also obtained from Invitrogen (Product ID No. P2760). The isozyme PKC theta was also obtained from Invitrogen (Product ID No. P2996).
Staurosporine was used as a positive control (2 μM).
To perform the assay, 2 μl, of a solution of the compound to be tested in DMSO (at each concentration) was added to 6 μl of a solution of the enzyme in 10 mM HEPES, 5 mM dithiotreitol, 0.1% Triton X-100, pH 7.4. The final concentration of the enzymes was 60 ng/ml.
After incubating for 30 minutes at room temperature, 4 μl of a mixture of ATP and the protein substrate in 60 mM HEPES (pH7.4), 15 mM MgCl2, 0.3 mM CaCl2, 0.06% NP40 was added. The final concentration of the ATP was 2.5 μM and final concentration of protein substrate was 1 μM.
After incubating for 80 minutes at room temperature, 3 μl of a mix solution of 500 mM EDTA (stop solution) and the Rhodamine-based PKC Red Tracer (from the Protein Kinase C Assay Kit) in BGG/phosphate buffer (pH7.4) with 0.02% NaN3 and 0.1% Triton X-100 was added and 5 μl of a the Anti-Phosphoserine antibody (also from the Protein Kinase C Assay Kit) in BGG/phosphate buffer (pH7.4) with 0.02% NaN3.
The mixture thus obtained (total volume: 20 μl) was incubated for 60 minutes at room temperature, upon which the fluorescence polarization was measured using an automated plate reader (Perkin Elmer, Model Envision 2100-0010 HTS) with FP filters for rhodamine: excitation fitter FITC FP 531 and emission filters FITC FP P-pol 595 and FITC FP S-pol 595 (Perkin-Elmer). The results were fitted to a curve using the XL-Fit algorithm and IC50 values were calculated for each fitted curve, again using the XL-Fit algorithm.

[4] = system: PKCε; test: Reporter assay (PathDetect trans reporter, Elk/SEAP) in reporter cell-lines over-expressing PKCε; assay type: cell-based
From the text: Whereas the reporter assay is focused on PKCε specific inhibition in a recombinant system, the monocytes assay is a biomarker assay that can be performed in isolated monocytes, full blood and in vivo to follow the pharmacological reduction of cytokine production:
The reporter assay exploits the effect of over-expressed PKCε on kinase activation and phosphorylation of a transcription factor to evaluate the potency and selectivity of PKCε inhibitors in a cellular context.
It has been shown by jae-Won Soh et al (MCB, February 1999 p 1313-1324) that over-expression of PKC epsilon results in the activation of MAPK-pathway (c-raf/MEK/ERK) leading to the activation of Elk transcription factor. This event can be monitored using the PathDetect trans reporter assay system (Stratagene): pFA2-ELK codes for a fusion protein between the Gal4 DNA binding domain and the transactivation domain of Elk which drives the expression of a secreted alkaline phosphatase (SEAP) reporter gene.
Compounds are incubated with reporter cell-lines either over-expressing PKCε, leading to continued activation of the kinase, or mock transfected cells. Inhibition of the PKCε induced signal in the absence of an effect on the basal level (mock transfected cells) is indicative for selective PKCε inhibition.

[5] = Table 2, compounds of Formula XIII

T2 sequence (O75116 11-552 limits assumed): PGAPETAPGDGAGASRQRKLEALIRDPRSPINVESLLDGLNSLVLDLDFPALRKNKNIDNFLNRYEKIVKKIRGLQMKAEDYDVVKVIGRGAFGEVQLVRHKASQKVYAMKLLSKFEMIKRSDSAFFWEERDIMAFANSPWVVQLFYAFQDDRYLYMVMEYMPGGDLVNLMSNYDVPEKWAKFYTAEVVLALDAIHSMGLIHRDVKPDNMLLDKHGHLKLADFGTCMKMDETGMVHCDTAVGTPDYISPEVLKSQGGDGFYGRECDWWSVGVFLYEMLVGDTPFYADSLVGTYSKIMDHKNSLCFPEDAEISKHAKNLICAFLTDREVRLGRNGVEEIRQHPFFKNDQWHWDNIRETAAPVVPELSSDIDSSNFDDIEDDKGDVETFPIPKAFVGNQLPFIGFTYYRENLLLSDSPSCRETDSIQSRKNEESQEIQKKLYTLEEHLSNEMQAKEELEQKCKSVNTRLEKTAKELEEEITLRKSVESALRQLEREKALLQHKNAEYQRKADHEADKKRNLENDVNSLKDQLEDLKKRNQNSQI
T3 sequence (Q04759 whole entry): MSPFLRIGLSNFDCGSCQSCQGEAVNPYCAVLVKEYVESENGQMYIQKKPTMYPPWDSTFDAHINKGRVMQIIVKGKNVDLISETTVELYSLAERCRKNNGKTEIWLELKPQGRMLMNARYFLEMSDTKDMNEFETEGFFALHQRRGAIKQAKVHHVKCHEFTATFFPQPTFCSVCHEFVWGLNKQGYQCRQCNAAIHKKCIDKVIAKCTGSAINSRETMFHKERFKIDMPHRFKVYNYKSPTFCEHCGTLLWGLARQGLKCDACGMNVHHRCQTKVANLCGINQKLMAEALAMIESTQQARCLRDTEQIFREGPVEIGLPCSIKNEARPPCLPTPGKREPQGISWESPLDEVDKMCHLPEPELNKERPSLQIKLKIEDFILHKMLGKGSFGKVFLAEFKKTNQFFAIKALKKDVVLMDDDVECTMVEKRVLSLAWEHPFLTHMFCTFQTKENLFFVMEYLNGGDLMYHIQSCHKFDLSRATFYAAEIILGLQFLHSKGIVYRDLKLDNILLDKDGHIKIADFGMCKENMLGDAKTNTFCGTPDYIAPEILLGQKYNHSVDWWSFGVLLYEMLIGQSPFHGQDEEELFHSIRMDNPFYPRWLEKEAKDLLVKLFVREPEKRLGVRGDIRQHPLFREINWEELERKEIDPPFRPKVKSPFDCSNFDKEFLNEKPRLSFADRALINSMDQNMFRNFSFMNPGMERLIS

Row | Molecule | IC50 [1, 5] | IC50 [2, 5] | IC50 [3] | IC50 [4] | IC50 [1] | IC50 [2]
1 | CC(C)(C(=O)NCC(N)c1ccc(C(=O)Nc2ccncc2)cc1)c1ccc(F)cc1 (stereo not shown) [Compound 339, 4-{1-Amino-2-[2-(4-fluoro-phenyl)-2-methyl-propionylamino]-ethyl}-N-pyridin-4-yl-benzamide] | < 0.05 µM | 0.05 to 0.5 µM | < 50 nM | < 5 µM | – | –
2 | NC(CNC(=O)C1(c2ccc(F)cc2)CC1)c1ccc(C(=O)Nc2ccncc2)cc1 (stereo not shown) [Compound 340, 4-(1-Amino-2-{[1-(4-fluoro-phenyl)-cyclopropanecarbonyl]-amino}-ethyl)-N-pyridin-4-yl-benzamide] | < 0.05 µM | – | – | < 5 µM | – | –
3 | NC(CNC(=O)C1CCCCc2ccc(F)cc21)c1ccc(C(=O)Nc2ccncc2)cc1 (stereo not shown) [Compound 356, 3-Fluoro-6,7,8,9-tetrahydro-5H-benzocycloheptene-5-carboxylic acid {2-amino-2-[4-(pyridin-4-ylcarbamoyl)-phenyl]-ethyl}-amide] | < 0.05 µM | 0.05 to 0.5 µM | – | < 5 µM | – | –
4 | NC(CNC(=O)C1(c2ccc(Cl)cc2)CC1)c1ccc(C(=O)Nc2ccnc3[nH]ccc23)cc1 (stereo not shown) [Compound 371, 4-(1-Amino-2-{[1-(4-chloro-phenyl)-cyclopropanecarbonyl]-amino}-ethyl)-N-(1H-pyrrolo[2,3-b]pyridin-4-yl)-benzamide dihydrochloric acid salt] | – | – | < 50 nM | < 5 µM | – | –
5 | Indan-1-carboxylic acid {2- amino-2-[4-(pyridin-4- ylcarbamoyl)-phenyl]-ethyl}- methyl-amide [Compound 507] | – | – | – | – | 5 to 50 µM | 0.5 to 5 µM
6 | N-{2-Amino-2-[4-(pyridin-4- ylcarbamoyl)-phenyl]-ethyl}- nicotinamide [Compound 107] | 0.5 to 5 µM | 0.5 to 5 µM | – | – | – | –

Now from value to molecule:

Row | IC50 [1, 5] | IC50 [2, 5] | IC50 [3] | IC50 [4] | IC50 [1] | IC50 [2] | Molecule
7 | < 0.05 µM | 0.05 to 0.5 µM | 50 to 500 nM | – | – | – | NC(CNC(=O)C1(c2ccc(Cl)cc2)CC1)c1ccc(C(=O)Nc2ccncc2)cc1 (stereo not shown) [Compound 168, 4-(1-Amino-2-{[1-(4-chloro-phenyl)-cyclopropanecarbonyl]-amino}-ethyl)-N-pyridin-4-yl-benzamide dihydrochloride]
8 | < 0.05 µM | – | 50 to 500 nM | < 5 µM | – | – | CC(C)(C(=O)NCC(N)c1ccc(C(=O)Nc2ccncc2)cc1)c1ccc(Cl)cc1 (stereo not shown) [Compound 335, 4-{1-Amino-2-[2-(4-chloro-phenyl)-2-methyl-propionylamino]-ethyl}-N-pyridin-4-yl-benzamide]
9 | – | – | – | < 5 µM | < 0.05 µM | < 0.05 µM | N[C@H](CC(=O)N[C@@H]1CCCc2ccccc21)c1ccc(C(=O)Nc2ccncc2)cc1 [Compound 373, 4-{(R)-1-Amino-2-[(R)-(1,2,3,4-tetrahydro-naphthalen-1-yl)carbamoyl]-ethyl}-N-pyridin-4-yl-benzamide dihydrochloric acid salt]
10 | – | – | < 50 nM | < 5 µM | < 0.05 µM | 0.05 to 0.5 µM | CC(C)(C(=O)NC[C@@H](N)c1ccc(C(=O)Nc2ccncc2)cc1)c1ccc(Cl)cc1 [Compound 399, 4-{(S)-1-Amino-2-[2-(4-chloro-phenyl)-2-methyl-propionylamino]-ethyl}-N-pyridin-4-yl-benzamide dihydrochloric acid salt]
